Consider five molecules from the supplement of paper PMC10307832.

Structures are written as SMILES.

The subject of one experiment is NCI-H727. The experiment is described as follows: relative viability (nuclei count vs DMSO), 5 days (fraction); higher = more cells survive. The settings on record: first compound 8 µM. The method, boiled down:
(§1)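 Values are medians from duplicate plates. Each reflects relative viability, defined as the nuclei count of treated wells over that of vehicle wells. Lung cancer cell lines in 1536-well plates were pin-tool dosed one day after seeding with one drug alone or with a fixed anchor-drug dose plus five library-drug doses (not always all listed) in √10 steps, then fixed, stained and imaged at 4× after 5 days.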
Regarding `Nc1cccc2c1CN(C1CCC(=O)NC1=O)C2=O` (stereo not given) [Lenalidomide] + COc1cccc2cc(-c3nc([C@H]4CC[C@H](C(=O)O)CC4)n4ncnc(N)c34)[nH]c12 [OSI-027] (partner 0.5 µM), the relative viability was 0.562.

A further experiment deals with PC-3 [JPC-3]. The description is as above. The settings on record: first compound 0.253 µM. The method, boiled down:
as §1
In turn, `Nc1cccc2c1CN(C1CCC(=O)NC1=O)C2=O` (stereo not given) [Lenalidomide] + N=C(N)NC(=N)NCCc1ccccc1 [Phenformin] (partner 250 µM) came in with a relative viability of 0.482.
On the same count and under the same terms, next, `Nc1cccc2c1CN(C1CCC(=O)NC1=O)C2=O` (stereo not given) [Lenalidomide] + Cc1cc(Nc2cc(N3CCN(C)CC3)nc(Sc3ccc(NC(=O)C4CC4)cc3)n2)n[nH]1 [Tozasertib] (partner 0.1 µM): 0.909; `Nc1cccc2c1CN(C1CCC(=O)NC1=O)C2=O` (stereo not given) [Lenalidomide] + CC(=O)c1c(C)c2cnc(Nc3ccc(N4CCNCC4)cn3)nc2n(C2CCCC2)c1=O [Palbociclib] (partner 0.5 µM): 0.545; `Nc1cccc2c1CN(C1CCC(=O)NC1=O)C2=O` (stereo not given) [Lenalidomide] + O=C(CCCCCCC(=O)Nc1ccccc1)NO [Vorinostat] (partner 1 µM): 1.02.
Still for that read-out and setting: the same measure for `Nc1cccc2c1CN(C1CCC(=O)NC1=O)C2=O` (stereo not given) [Lenalidomide] + COc1cccc2cc(-c3nc([C@H]4CC[C@H](C(=O)O)CC4)n4ncnc(N)c34)[nH]c12 [OSI-027] (partner 0.5 µM): 0.832.

The same experiment, now with this note: first compound 0.8 µM.
Molecule `Nc1cccc2c1CN(C1CCC(=O)NC1=O)C2=O` (stereo not given) [Lenalidomide] + N=C(N)NC(=N)NCCc1ccccc1 [Phenformin] (partner 250 µM) came in with a relative viability of 0.432.
The same measure, in the same setting: next, `Nc1cccc2c1CN(C1CCC(=O)NC1=O)C2=O` (stereo not given) [Lenalidomide] + Cc1cc(Nc2cc(N3CCN(C)CC3)nc(Sc3ccc(NC(=O)C4CC4)cc3)n2)n[nH]1 [Tozasertib] (partner 0.1 µM): 0.899.
On the same count and under the same terms, next, `Nc1cccc2c1CN(C1CCC(=O)NC1=O)C2=O` (stereo not given) [Lenalidomide] + CC(=O)c1c(C)c2cnc(Nc3ccc(N4CCNCC4)cn3)nc2n(C2CCCC2)c1=O [Palbociclib] (partner 0.5 µM): 0.511.
`Nc1cccc2c1CN(C1CCC(=O)NC1=O)C2=O` (stereo not given) [Lenalidomide] + O=C(CCCCCCC(=O)Nc1ccccc1)NO [Vorinostat] (partner 1 µM): the relative viability turned out to be 0.721.
Same read-out and setting: the same measure for `Nc1cccc2c1CN(C1CCC(=O)NC1=O)C2=O` (stereo not given) [Lenalidomide] + COc1cccc2cc(-c3nc([C@H]4CC[C@H](C(=O)O)CC4)n4ncnc(N)c34)[nH]c12 [OSI-027] (partner 0.5 µM): 0.569.

The same experiment, now with this note: first compound 2.53 µM.
For `Nc1cccc2c1CN(C1CCC(=O)NC1=O)C2=O` (stereo not given) [Lenalidomide] + N=C(N)NC(=N)NCCc1ccccc1 [Phenformin] (partner 250 µM), the relative viability worked out at 0.502.
Molecule `Nc1cccc2c1CN(C1CCC(=O)NC1=O)C2=O` (stereo not given) [Lenalidomide] + Cc1cc(Nc2cc(N3CCN(C)CC3)nc(Sc3ccc(NC(=O)C4CC4)cc3)n2)n[nH]1 [Tozasertib] (partner 0.1 µM) had a relative viability of 1.03.
Same read-out and setting: next, `Nc1cccc2c1CN(C1CCC(=O)NC1=O)C2=O` (stereo not given) [Lenalidomide] + CC(=O)c1c(C)c2cnc(Nc3ccc(N4CCNCC4)cn3)nc2n(C2CCCC2)c1=O [Palbociclib] (partner 0.5 µM): 0.548; `Nc1cccc2c1CN(C1CCC(=O)NC1=O)C2=O` (stereo not given) [Lenalidomide] + O=C(CCCCCCC(=O)Nc1ccccc1)NO [Vorinostat] (partner 1 µM): 0.903.
Still for that read-out and setting: next, `Nc1cccc2c1CN(C1CCC(=O)NC1=O)C2=O` (stereo not given) [Lenalidomide] + COc1cccc2cc(-c3nc([C@H]4CC[C@H](C(=O)O)CC4)n4ncnc(N)c34)[nH]c12 [OSI-027] (partner 0.5 µM): 0.769.

Still in this experiment, the particulars now being: first compound 8 µM.
Regarding `Nc1cccc2c1CN(C1CCC(=O)NC1=O)C2=O` (stereo not given) [Lenalidomide] + N=C(N)NC(=N)NCCc1ccccc1 [Phenformin] (partner 250 µM), the relative viability was 0.511.
Same read-out and setting: the same measure for `Nc1cccc2c1CN(C1CCC(=O)NC1=O)C2=O` (stereo not given) [Lenalidomide] + Cc1cc(Nc2cc(N3CCN(C)CC3)nc(Sc3ccc(NC(=O)C4CC4)cc3)n2)n[nH]1 [Tozasertib] (partner 0.1 µM): 0.955; for `Nc1cccc2c1CN(C1CCC(=O)NC1=O)C2=O` (stereo not given) [Lenalidomide] + CC(=O)c1c(C)c2cnc(Nc3ccc(N4CCNCC4)cn3)nc2n(C2CCCC2)c1=O [Palbociclib] (partner 0.5 µM): 0.57; for `Nc1cccc2c1CN(C1CCC(=O)NC1=O)C2=O` (stereo not given) [Lenalidomide] + O=C(CCCCCCC(=O)Nc1ccccc1)NO [Vorinostat] (partner 1 µM): 0.72.
The same measure, in the same setting: next, `Nc1cccc2c1CN(C1CCC(=O)NC1=O)C2=O` (stereo not given) [Lenalidomide] + COc1cccc2cc(-c3nc([C@H]4CC[C@H](C(=O)O)CC4)n4ncnc(N)c34)[nH]c12 [OSI-027] (partner 0.5 µM): 0.818.

Another experiment deals with RERF-LC-KJ. Described as above. Particulars: first compound 0.253 µM. Put shortly: as §1
The molecule `Nc1cccc2c1CN(C1CCC(=O)NC1=O)C2=O` (stereo not given) [Lenalidomide] + N=C(N)NC(=N)NCCc1ccccc1 [Phenformin] (partner 250 µM) came in with a relative viability of 0.403.
With `Nc1cccc2c1CN(C1CCC(=O)NC1=O)C2=O` (stereo not given) [Lenalidomide] + Cc1cc(Nc2cc(N3CCN(C)CC3)nc(Sc3ccc(NC(=O)C4CC4)cc3)n2)n[nH]1 [Tozasertib] (partner 0.1 µM), the relative viability was determined as 0.507.
The same measure, in the same setting: next, `Nc1cccc2c1CN(C1CCC(=O)NC1=O)C2=O` (stereo not given) [Lenalidomide] + CC(=O)c1c(C)c2cnc(Nc3ccc(N4CCNCC4)cn3)nc2n(C2CCCC2)c1=O [Palbociclib] (partner 0.5 µM): 1.09; `Nc1cccc2c1CN(C1CCC(=O)NC1=O)C2=O` (stereo not given) [Lenalidomide] + O=C(CCCCCCC(=O)Nc1ccccc1)NO [Vorinostat] (partner 1 µM): 0.574; `Nc1cccc2c1CN(C1CCC(=O)NC1=O)C2=O` (stereo not given) [Lenalidomide] + COc1cccc2cc(-c3nc([C@H]4CC[C@H](C(=O)O)CC4)n4ncnc(N)c34)[nH]c12 [OSI-027] (partner 0.5 µM): 0.57.

Staying with this experiment, now noted: first compound 0.8 µM.
`Nc1cccc2c1CN(C1CCC(=O)NC1=O)C2=O` (stereo not given) [Lenalidomide] + N=C(N)NC(=N)NCCc1ccccc1 [Phenformin] (partner 250 µM): the relative viability came to 0.463.
The same measure, in the same setting: the same measure for `Nc1cccc2c1CN(C1CCC(=O)NC1=O)C2=O` (stereo not given) [Lenalidomide] + Cc1cc(Nc2cc(N3CCN(C)CC3)nc(Sc3ccc(NC(=O)C4CC4)cc3)n2)n[nH]1 [Tozasertib] (partner 0.1 µM): 0.566.
`Nc1cccc2c1CN(C1CCC(=O)NC1=O)C2=O` (stereo not given) [Lenalidomide] + CC(=O)c1c(C)c2cnc(Nc3ccc(N4CCNCC4)cn3)nc2n(C2CCCC2)c1=O [Palbociclib] (partner 0.5 µM) gave a relative viability of 1.06.
The molecule `Nc1cccc2c1CN(C1CCC(=O)NC1=O)C2=O` (stereo not given) [Lenalidomide] + O=C(CCCCCCC(=O)Nc1ccccc1)NO [Vorinostat] (partner 1 µM) came in with a relative viability of 0.605.
